# Source: ChEMBL document CHEMBL5608234, “Heat Shock Protein 90 Interactome-Mediated Proteolysis Targeting Chimera (HIM-PROTAC) Degrading Glutathione Peroxidase 4 to Trigger Ferroptosis” (J Med Chem, 2024)
# The source made the active and inactive calls. No cut-off for these calls is given here.
# Assays:
# HT-1080 [1] = test: HIM-PROTAC activity at GPX4/HSP90/E3 ligase in human HT-1080 cells assessed as reduction in GPX4 level at 1 uM incubated for 12 hrs by Western blotting analysis; format: cell-based
# MDA-MB-231 = test: HIM-PROTAC activity at GPX4/HSP90/E3 ligase in human MDA-MB-231 cells assessed as reduction in GPX4 level at 0.1 to 3 uM incubated for 24 hrs by Western blotting analysis; format: cell-based; details: dose 0.1-3 µM
# [2] = Half-life in ICR mouse at 25 mg/kg, ip measured upto 24 hrs by LC-MS/MS analysis; format: ADME, organism-based; details: in vivo
# [3] = Toxicity in BALB/c mouse xenografted with human HT-1080 cells assessed as change in liver morphology at 25 to 50 mg/kg, ip administered once daily by H and E staining based assay; format: organism-based; details: in vivo, dose 25-50 mg/kg
# [4] = AUC(0 to t) in ICR mouse at 25 mg/kg, ip measured upto 24 hrs by LC-MS/MS analysis; format: ADME, organism-based; details: in vivo
# HT-1080 [5] = test: Downregulation of GPX4 protein level in human HT-1080 cells at 1 uM incubated for 24 hrs by proteomics analysis; format: functional, cell-based
# [6] = Toxicity in BALB/c mouse xenografted with human HT-1080 cells assessed as reduction in body weight at 25 to 50 mg/kg, ip administered once daily; format: organism-based; details: in vivo, dose 25-50 mg/kg
# Mus musculus [7] = test: Upregulation of 4-HNE protein level in BALB/c mouse tumor xenografted with human HT-1080 cells at 50 to 100 mg/kg, ip measured upto 36 hrs; format: functional, organism-based; details: dose 50-100 mg/kg
# Mus musculus [8] = test: Downregulation of GPX4 protein level in BALB/c mouse tumor xenografted with human HT-1080 cells at 50 to 100 mg/kg, ip measured upto 36 hrs; format: functional, organism-based; details: dose 50-100 mg/kg
# HT-1080 [9] = test: Induction of ferroptosis in human HT-1080 cells assessed as increase in ROS level at 1 uM incubated for 24 hrs by DCFH-DA staining based confocal laser scanning microscopic analysis; format: functional, cell-based
# HT-1080 [10] = test: HIM-PROTAC activity at GPX4/HSP90/E3 ligase in human HT-1080 cells assessed as reduction in GPX4 level at 1 uM preincubated with 2-chloro-N-(3-chloro-4-methoxyphenyl)-N-(2-oxo-2-(phenethylamino)-1-(thiophen-2-yl)ethyl)acetamide for 2 hrs followed by compound addition and measured after 24 hrs by Western blotting analysis; format: cell-based
# HT-1080 [11] = test: Induction of HSP90/GPX4 protein protein interaction in human HT-1080 cells assessed as ternary complex formation at 5 uM incubated for 12 hrs by co-immunoprecipitation method; format: cell-based; details: filed as activator
# HT-1080 [12] = test: Induction of ferroptosis in human HT-1080 cells assessed as increase in lipid peroxidation by measuring fluorescence intensity incubated for 12 hrs by C11-BODIPSY 581/591 staining based flow cytometry analysis; format: functional, cell-based; details: dose 0.1-3 µM
# [13] = Cmax in ICR mouse at 25 mg/kg, ip measured upto 24 hrs by LC-MS/MS analysis; format: ADME, organism-based; details: in vivo
# [14] = Tmax in ICR mouse at 25 mg/kg, ip measured upto 24 hrs by LC-MS/MS analysis; format: ADME, organism-based; details: in vivo
# HT-1080 [15] = test: HIM-PROTAC activity at GPX4/HSP90/E3 ligase in HSP90-knockdown human HT-1080 cells assessed as GPX4 degradation at 0.3 to 1 uM incubated for 24 hrs by Western blotting analysis; format: cell-based; details: dose 0.3-1 µM
# [16] = Toxicity in BALB/c mouse xenografted with human HT-1080 cells assessed as change in heart morphology at 25 to 50 mg/kg, ip administered once daily by H and E staining based assay; format: organism-based; details: in vivo, dose 25-50 mg/kg
# HT-1080 [17] = test: HIM-PROTAC activity at GPX4/HSP90/E3 ligase in human HT-1080 cells assessed as reduction in GPX4 level at 1 uM preincubated with 6-chloro-9-((4-methoxy-3,5-dimethylpyridin-2-yl)methyl)-9H-purin-2-amine for 2 hrs followed by compound addition and measured after 24 hrs by Western blotting analysis; format: cell-based
# Mus musculus [18] = test: Downregulation of GPX4 level in ip dosed BALB/c mouse xenografted with human HT-1080 cells administered once daily by immunohistochemistry analysis; format: functional, organism-based; details: dose 25-50 mg/kg
# HT-1080 [19] = test: Induction of ferroptosis in human HT-1080 cells assessed as increase in HMOX1 protein level after 24 hrs by Western blotting analysis; format: functional, cell-based; details: dose 0.1-3 µM
# [20] = HIM-PROTAC activity at GPX4/HSP90/E3 ligase in human HT-1080 cells assessed as reduction in GPX4 level incubated for 24 hrs by Western blotting analysis; format: cell-based; details: HT-1080, 24 h
# HT-1080 [21] = test: Cytotoxicity against human HT-1080 cells incubated for 48 hrs by CCK-8 assay; format: functional, cell-based; details: HT-1080, 48 h
# [22] = MRT(infinity) in ICR mouse at 25 mg/kg, ip measured upto 24 hrs by LC-MS/MS analysis; format: ADME, organism-based; details: in vivo
# HT-1080 [23] = test: Induction of ferroptosis in human HT-1080 cells assessed as ruptured mitochondria at 1 uM incubated for 24 hrs by TEM analysis; format: functional, cell-based
# [24] = biological target: T1, Phospholipid hydroperoxide glutathione peroxidase GPX4 (Homo sapiens) (UniProt P36969); test: Induction of GPX4 ubiquitination in human HT-1080 cells at 1 uM incubated for 12 hrs by SDS-PAGE assay; format: cell-based; details: filed as activator
# T1 sequence (whole entry): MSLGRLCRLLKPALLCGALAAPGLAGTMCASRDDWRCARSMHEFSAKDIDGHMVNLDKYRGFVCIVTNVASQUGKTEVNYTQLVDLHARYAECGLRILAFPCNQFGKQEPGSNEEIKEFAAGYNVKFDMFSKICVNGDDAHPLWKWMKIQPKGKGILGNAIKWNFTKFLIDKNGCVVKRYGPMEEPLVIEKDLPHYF
# HT-1080 [25] = test: Induction of ferroptosis in human HT-1080 cells assessed as increase in lipid peroxidation by measuring fluorescence intensity at 1 uM incubated for 12 hrs in presence of Fer-1 by C11-BODIPSY 581/591 staining based flow cytometry analysis; format: functional, cell-based
# Mus musculus [26] = test: Upregulation of 4-HNE level in ip dosed BALB/c mouse xenografted with human HT-1080 cells administered once daily by immunohistochemistry analysis; format: functional, organism-based; details: dose 25-50 mg/kg
# [27] = biological target: Heat shock protein HSP 90-alpha (Homo sapiens, UniProt P07900); test: Binding affinity to recombinant human HSP90alpha by SPR assay
# [28] = AUCinfinity in ICR mouse at 25 mg/kg, ip measured upto 24 hrs by LC-MS/MS analysis; format: ADME, organism-based; details: in vivo
# HT-1080 [29] = test: Upregulation of HMOX1 protein level in human HT-1080 cells at 1 uM incubated for 24 hrs by proteomics analysis; format: functional, cell-based
# [30] = Toxicity in BALB/c mouse xenografted with human HT-1080 cells assessed as change in lung morphology at 25 to 50 mg/kg, ip administered once daily by H and E staining based assay; format: organism-based; details: in vivo, dose 25-50 mg/kg
# HT-1080 [31] = test: Antitumor activity against human HT-1080 cells xenografted in ip dosed BALB/c mouse assessed as tumor growth suppression administered once daily; format: functional, organism-based; details: dose 25-50 mg/kg
# HT-1080 [32] = test: HIM-PROTAC activity at GPX4/HSP90/E3 ligase in human HT-1080 cells assessed as reduction in GPX4 level at 0.1 to 3 uM incubated for 24 hrs by Western blotting analysis; format: cell-based; details: dose 0.1-3 µM
# HT-1080 [33] = test: Induction of ferroptosis in human HT-1080 cells assessed as mitochondrial swelling at 1 uM incubated for 24 hrs by TEM analysis; format: functional, cell-based
Compound,Activity (HT-1080 [1]),Activity (MDA-MB-231),half-life [2],Activity [3],AUC(0-t) at 24 h [4],Activity (HT-1080 [5]),Activity [6],Activity (Mus musculus [7]),Activity (Mus musculus [8]),Activity (HT-1080 [9]),Activity (HT-1080 [10]),Activity (HT-1080 [11]),Activity (HT-1080 [12]),Cmax [13],Tmax [14],Activity (HT-1080 [15]),Activity [16],Activity (HT-1080 [17]),Activity (Mus musculus [18]),Activity (HT-1080 [19]),other results
COc1c(C)cnc(Cn2cnc3c(NCCOCCOCCOCCn4cc(COc5ccc(N(C(=O)CCl)C(C(=O)NCCc6ccccc6)c6cccs6)cc5Cl)nn4)nc(N)nc32)c1C (stereo not drawn),Active,inactive,5.5 h,Non-Toxic,726 ng·h/mL,Active,Toxic,Active,Active,Active,inactive,Active,Dose-Dependent Effect,139 ng/mL,2 h,inactive,Non-Toxic,inactive,Dose-Dependent Effect,Dose-Dependent Effect,DC50 [20]: 180 nM; IC50 (HT-1080 [21]): 1300 nM; MRT inf [22]: 8.2 h; Activity (HT-1080 [23]): Active; Activity [24]: Active; Activity (HT-1080 [25]): inactive; Activity (Mus musculus [26]): Dose-Dependent Effect; Kd [27]: 2770 nM; AUC(0-inf) [28]: 1030 ng·h/mL; Activity (HT-1080 [29]): Active; Activity [30]: Non-Toxic; Activity (HT-1080 [31]): Dose-Dependent Effect; Activity (HT-1080 [32]): Active; Activity (HT-1080 [33]): Active
COc1c(C)cnc(Cn2cnc3c(NCCC4CCN(C(=O)Cn5cc(COc6ccc(N(C(=O)CCl)C(C(=O)NCCc7ccccc7)c7cccs7)cc6Cl)nn5)CC4)nc(N)nc32)c1C (stereo not drawn),Active,inactive,5 h,Non-Toxic,334 ng·h/mL,Active,Toxic,Active,Active,Active,inactive,Active,Dose-Dependent Effect,53.1 ng/mL,2 h,inactive,Non-Toxic,inactive,Dose-Dependent Effect,Dose-Dependent Effect,DC50 [20]: 80 nM; IC50 (HT-1080 [21]): 740 nM; MRT inf [22]: 6.2 h; Activity (HT-1080 [23]): Active; Activity [24]: Active; Activity (HT-1080 [25]): inactive; Activity (Mus musculus [26]): Dose-Dependent Effect; Kd [27]: 190 nM; AUC(0-inf) [28]: 346 ng·h/mL; Activity (HT-1080 [29]): Active; Activity [30]: Non-Toxic; Activity (HT-1080 [31]): Dose-Dependent Effect; Activity (HT-1080 [32]): Active; Activity (HT-1080 [33]): Active
